Laboratory results: patent publication US20190054051A1, “DOPA Formulations for Treatments of Parkinson's Disease” (The Board of Trustees of the Leland Stanford Junior …, priority 2017, published 2019)

Columns and labels:
Δ Fos B = assay: Western blot of Δ Fos B accumulation in striatum; parameters: species or system mice; conditions: mouse, in vivo
Method: After behavioral testing, mice again received their assigned injection and then, 45 minutes later, were decapitated under anesthesia. Tissue samples were processed as follows. Briefly, the brain was dissected, rapidly frozen on dry ice, and stored at −80° C. Striatal tissue was collected from 100 μm coronal slices cut at the level of striatum using a cryostat (Leica CM1950, Leica Biosystems Inc, Buffalo Groove, Ill.). Striatal samples from the intact and the lesioned hemisphere were separately collected in 150p1 of lysis solution (Totally RNA, Ambion, Austin, Tex.). Care was taken to make sure that the tissue samples were collected from similar regions in all the brain samples analyzed, since there are differences in the expression of GRKs from rostral to caudal CPu. […] Western blots were quantified using band densitometry in Image J software (NIH version). […] Results are represented as group mean±SEM and analyzed using one-way or repeated-measures ANOVA (RM-ANOVA), with post hoc Bonferroni tests. The mouse cylinder test was analyzed with RM-ANOVA, with group (DOPA and DOPA-ranitidine formulations) as a between-group factor and saline vs. DOPA treatment as a within-group factor. AIMs scores were analyzed using the Kruskal Wallis test for pre-testing (DOPA injected animals) and the Mann-Whitney U test for the post-testing sessions (DOPA vs DOPA-ranitidine formulations). […]

ERK = assay: Western blot of ppERK and total ERK in striatum; type: in vivo, mice; conditions: 45 minutes after last injection
Method: After behavioral testing, mice again received their assigned injection and then, 45 minutes later, were decapitated under anesthesia. Tissue samples were processed as follows. Briefly, the brain was dissected, rapidly frozen on dry ice, and stored at −80° C. Striatal tissue was collected from 100 μm coronal slices cut at the level of striatum using a cryostat (Leica CM1950, Leica Biosystems Inc, Buffalo Groove, Ill.). Striatal samples from the intact and the lesioned hemisphere were separately collected in 150p1 of lysis solution (Totally RNA, Ambion, Austin, Tex.). Care was taken to make sure that the tissue samples were collected from similar regions in all the brain samples analyzed, since there are differences in the expression of GRKs from rostral to caudal CPu. […]
Western blots were quantified using band densitometry in Image J software (NIH version). […] Results are represented as group mean±SEM and analyzed using one-way or repeated-measures ANOVA (RM-ANOVA), with post hoc Bonferroni tests. The mouse cylinder test was analyzed with RM-ANOVA, with group (DOPA and DOPA-ranitidine formulations) as a between-group factor and saline vs. DOPA treatment as a within-group factor. AIMs scores were analyzed using the Kruskal Wallis test for pre-testing (DOPA injected animals) and the Mann-Whitney U test for the post-testing sessions (DOPA vs DOPA-ranitidine formulations). […]

| Compound | Δ Fos B accumulation on the lesioned side (Δ Fos B) | ERK phosphorylation (ppERK) in the lesioned hemisphere (ERK) |
| --- | --- | --- |
| CN/C(=C\[N+](=O)[O-])NCCSCc1ccc(CN(C)C)o1 [Ranitidine, N-(2-[(5-[(dimethylamino)methyl]furan-2-yl)methylthio]ethyl)-N′-methyl-2-nitroethene-1,1-diamine] | no effects | increased |
| N[C@@H](Cc1ccc(O)c(O)c1)C(=O)O [L-DOPA, L-3,4-dihydroxyphenylalanine] | significantly increased on the lesioned side | increased |
